Assay results published in US11446299B2, “Carbazole EHop-016 derivatives as anticancer and anti-migratory agents” (UNIVERSITY OF PUERTO RICO, priority 2017, dated 2022).
Where two headings read alike, the source gives them in different places. Each block holds one compound with its values, some of them ahead of it.

Experiments:
[1] = mouse model; cited from earlier work
[2] = system: MDA-MB-231 breast cancer cell lines; test: Cytotoxicity (IC50) of EHop-016 derivatives modified in building block C; assay type: cell-based; settings: Homo sapiens, concentration at which 50% of the cell growth is inhibited
Description: (§1) An additional example of a compounds with modification in building block C was synthesized via a different procedure as represented in Scheme 2B (see FIG. 11B). The compounds that were synthesized were tested for their biological activity by determination of their cytotoxicity in MDA-MB-231 breast cancer cell lines as shown in Table 5. The cytotoxicity's are expressed as IC50, which indicates the concentration at which 50% of the cell growth is inhibited. Furthermore, the inhibition of cell migration was tested at a concentration of 0.2×IC50, or, when the IC50 was >50 μM at a concentration of 10 μM. For comparison, Table 5 also includes the Lipinski and drug-likeness parameters as calculated via the MolSoft platform.

[3] = system: MDA-MB-231 cancer cells; test: Sulforhodamine B (SRB) growth inhibition assay; assay type: cell-based, human; settings: Homo sapiens, MDA-MB-231; SRB assay, 24 h treatment, mean of triplicate, SD <10%
Description: (§2) Various compounds were tested to evaluate the dose response curve for effect on MCF-7 cancer cells and MDA-MB-231 cancer cells. MCF-7 and MDA-MB-231 cells were cultured in 10% Minimum Essential Medium Eagle (MEME) supplemented with Earle's Balanced Salt Solution (EBSS), Non-essential Amino acids (NEAA), Sodium pyruvate, Pen/Strep, L-glutamine and Fetal Bovine Serum (FBS) at 37° C. in 5% CO2.
(§3) Sulforhodamine B (SRB) Assay: A stock solution of compounds was prepared at 50 mM in 100% DMSO. For cells preparation, a flask of 75 cm^2 or 25 cm^2 were used for 2.6×10^5 cells or 1.44×10^5 cells respectively with an 80-90% of confluence. Cells were washed with PBS and trypsinized. The concentration of cells was determined using a 1:2 dilutions with Trypan Blue and a hemocytometer. After cell count, the concentration was adjusted to have a 1.9×10^4 cells/well. Approximately […] of cells suspension, compounds, control positive and control negative were added in triplicates to a 96 well plate. Positive controls used were ellipticine, doxorubicin, and/or vincristine, and the negative control was DMSO 0.1%. All compounds at 50, 25, 12.5, 6.3, and 1.6 μM were incubated with cells at 37° C. for 24 hrs. For fixation, cold TCA 50% was used and incubated at 4° C. for 1 hr. Wells were washed and dried prior to tincture with 100 μL of SRB 0.4%. To remove excess of SRB, acetic acid was used. For analysis, TRIS-BASE Solution (pH=10.5) was used and shacked prior to reading using an ELISA reader at 510 nm and the software SoftMax Pro 4.8.
(§4) For each compound, 50% growth inhibition (GI50) was calculated from Sigmoidal dose-response curves (variable-slope) that were generated with data obtained from experiments carried out in triplicates (GI50 values were generated with GraphPad Prism V. 6.02, GraphPad Software, Inc.). The results are presented in FIGS. 4A-4B (MCF-7 cancer cells) and FIGS. 5A-5B (MDA-MB-231 cancer cells).

[4] = target: Rac (Homo sapiens, UniProt P63000); settings: cited from earlier work
[5] = system: tumor; settings: at ≥25 mg/kg Body Weight, mouse model; cited from earlier work
[6] = system: MCF-7 cancer cells; test: Sulforhodamine B (SRB) growth inhibition assay; assay type: cell-based; settings: Homo sapiens, MCF7, 24 h treatment, mean of triplicate, SD <10%
Description: as §2, §3, §4

[7] = target: Rac1-Vav2 interaction (Homo sapiens, UniProt P63000); settings: cited from earlier work
[8] = target: Cdc42 (Homo sapiens, UniProt P60953); settings: cited from earlier work
Chain of Cdc42 (P60953 whole entry, species assumed): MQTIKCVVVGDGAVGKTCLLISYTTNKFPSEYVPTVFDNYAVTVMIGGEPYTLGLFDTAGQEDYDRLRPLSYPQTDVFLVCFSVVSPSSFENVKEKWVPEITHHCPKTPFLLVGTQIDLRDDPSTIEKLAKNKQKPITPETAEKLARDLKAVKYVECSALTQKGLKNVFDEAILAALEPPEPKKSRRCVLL

[9] = system: MDA-MB-231 breast cancer cells; test: Wound healing assay (scratch method), cell migration; assay type: cell-based, human; settings: for inhibition at 10 µM: read-out: anti-migratory activity (inhibition of migration); for inhibition of migration in words: at a concentration of 0.2×IC50
Description: The experimental data of anti-migratory activities for compounds 3a-d and 4a-f were obtained using MDA-MB-231 breast cancer cells. For the migration assay, a wound-healing assay (scratch-wound assay) was utilized in the presence of vehicle (0.02% DMSO) or compounds at […].
Prior to assays, cells were grown until 80-90% confluence was observed. A 75 cm2 flask was used for 2.6×10^5 cells/mL in 10 mL and for a 25 cm2 flask 1.44×10^5 cells/mL in 5 mL. The cells were washed with PBS to remove all traces of FBS. 2 mL was added for a 25 cm2 flasks or 4 mL for a 75 cm2 flasks trypsin, and incubated 5-10 min at 37° C. At the end of the incubation time, cells were re-suspended and counted with hemocytometer using 1:2 dilutions with Trypan blue. Subsequently, cell viability was calculated. In a 12 multiwell plate, the plastic pattern was used to draw a fine space with a fine marker on the bottom of the plate. Cells were seeded at 1.5-2.2×10^5 cells/mL in 1 mL and incubated for 24 h. Cells were then rinsed with PBS and incubated in starving media (0.5% FBS) overnight. All controls and drugs were tested in triplicate. The negative control for each drug was prepared according to the drug's DMSO concentration.
Drugs were diluted and the final concentration at each well […]. The wound was made using a sterile pipette tip of […]. Cells were then rinsed very gently with media without FBS and media with negative controls was added. After a 24 h incubation, the gap distance was evaluated using the software Lumera Infinity Analyze 6.4.0. Pictures were taken at 0, 8, 12 and 24 h using a 10× objective. The percentage of migration was calculated using the following formula: 100−[(X0/X0)]*100 for time 0 h measurements 100−[(X24/X0)]*100 for time 24 h measurements
The experimental data of anti-migratory activities for compounds 3a-d and 4a-f were obtained using MDA-MB-231 breast cancer cells, and results are summarized in Table 1. For the migration assay, we used a wound-healing assay (scratch-wound assay)^22 in the presence of vehicle (0.02% DMSO) or compounds at 10 μM (FIG. 6). […] However, compounds 3a, 3c, and 4a-f inhibited migration in the range of 1-9%.
as §1
Migration assays were performed via the Scratch Method as described previously.

[10] = system: PAK1; settings: at 2 μM; cited from earlier work
[11] = system: SH-SY5Y neuroblastoma cells; test: Growth inhibition, log dose-response; assay type: cell-based; settings: Homo sapiens
Excerpt: FIG. 14 (A-B). Log dose-response curve for compound 8 in MCF-7 (FIG. 14A) and SH-SY5Y neuroblastoma (FIG. 14B) cells.

GI50 [3]: 15 µM
GI50 [6]: 14 µM
Structure (SMILES): CCn1c2ccccc2c2cc(Nc3ccnc(NCCCN4CCOCC4)n3)ccc21 (racemic) [EHop-016]
clearance in words [1]: cleared rapidly from the circulation
IC50 [2]: 15.7 µM
activity relative to previously available Rac inhibitors [4]: 10-100 times
IC50 ([4]; metastatic breast cancer cells): 1 µM
tumor growth, metastasis and angiogenesis in words [5]: significantly reduced tumor growth, metastasis, and angiogenesis
IC50 [7]: 1 µM
concentrations that inhibit Cdc42 activity [8]: ≥ 10 µM
activity at 1 µM ([9]; Homo sapiens, MDA-MB-231, 24 h): 95.4%
activity at 5 µM ([9]; Homo sapiens, MDA-MB-231, 24 h, at 5 μM): 63.4%
inhibition at 1 µM ([9]; Homo sapiens, MDA-MB-231, read-out: inhibition of migration, at 1.0 μM, scratch method): 5%
inhibition at 5 µM ([9]; Homo sapiens, MDA-MB-231, read-out: inhibition of migration, at 5.0 μM, scratch method): 37%
inhibition at 10 µM ([9]; Homo sapiens, MDA-MB-231): 33%
inhibition at 10 µM ([9]; Homo sapiens, at 10 μM, 24 h, MDA-MB-231): 33%
activity at 10 µM ([9]; Homo sapiens, percent relative migration at 10 μM after 24 h, relative to control, MDA-MB-231): 67 ± 7.55%
anti-migratory activity ([9]; at 5 pM as printed, MDA-MB-231): 17%
anti-migratory activity ([9]; at 5 μM, MDA-MB-231): 17%
inhibition of PAK1 [10]: 60%

GI50 [11]: 6 µM
GI50 [6]: 9.5 µM
Structure (SMILES): CCn1c2ccccc2c2cc(Nc3cc(C)nc(NCCCN4CCOCC4)n3)ccc21 [Compound 8, N^4-(9-Ethyl-9H-carbazol-3-yl)-6-methyl-N^2-(3-morpholin-4-yl-propyl)-pyrimidine-2,4-diamine]

Structure (SMILES): CCN(CC)CCCC(C)Nc1nccc(Nc2ccc3c(c2)c2ccccc2n3CC)n1 (centres unmarked) [Compound 32, N^2-(5-(diethylamino)pentan-2-yl)-N^4-(9-ethyl-9H-carbazol-3-yl)pyrimidine-2,4-diamine]
IC50 [2]: 9 µM
activity at 1.8 µM ([9]; Homo sapiens, MDA-MB-231, 24 h, at 1.8 μM (0.2×IC50)): 99.9%

Structure (SMILES): CCn1c2ccccc2c2cc(Nc3ccnc(NCCCn4ccnc4)n3)ccc21 [Compound 33, N^2-(3-(1H-imidazol-1-yl)propyl)-N^4-(9-ethyl-9H-carbazol-3-yl)pyrimidine-2,4-diamine]
IC50 [2]: 7.57 µM
activity at 1.51 µM ([9]; Homo sapiens, MDA-MB-231, 24 h, at 1.51 μM (0.2×IC50)): 100%

Structure (SMILES): CCn1c2ccccc2c2cc(Nc3ccnc(NCC4CCCCN4)n3)ccc21 (centres unmarked) [Compound 34, N^4-(9-ethyl-9H-carbazol-3-yl)-N^2-(piperidin-2-ylmethyl)pyrimidine-2,4-diamine]
IC50 [2]: 1.97 µM
activity at 0.39 µM ([9]; Homo sapiens, MDA-MB-231, 24 h, at 0.39 μM (0.2×IC50)): 100%

Structure (SMILES): CCn1c2ccccc2c2cc(Nc3ccnc(NCCC4CCCN4C)n3)ccc21 (centres unmarked) [Compound 35, N^4-(9-ethyl-9H-carbazol-3-yl)-N^2-(2-(1-methylpyrrolidin-2-yl)ethyl)pyrimidine-2,4-diamine]
IC50 [2]: 19.1 µM
activity at 3.8 µM ([9]; Homo sapiens, MDA-MB-231, 24 h, at 3.8 μM (0.2×IC50)): 89.1%
inhibition of migration in words [9]: inhibition of migration

Structure (SMILES): CCn1c2ccccc2c2cc(Nc3ccnc(NCCO)n3)ccc21 [Compound 36, 2-((4-((9-ethyl-9H-carbazol-3-yl)amino)pyrimidin-2-yl)amino) ethanol]
IC50 [2]: 14.6 µM
activity at 2.92 µM ([9]; Homo sapiens, MDA-MB-231, 24 h, at 2.92 μM (0.2×IC50)): 94.8%

Structure (SMILES): CCn1c2ccccc2c2cc(Nc3ccnc(NCCOCCO)n3)ccc21 [Compound 37, 2-(2-((4-((9-ethyl-9H-carbazol-3-yl)amino)pyrimidin-2-yl)amino)ethoxy)ethanol]
IC50 [2]: > 50 µM
activity at 3.07 µM ([9]; Homo sapiens, MDA-MB-231, 24 h, at 3.07 μM): 100%

Structure (SMILES): CCn1c2ccccc2c2cc(Nc3ccnc(NCCOC)n3)ccc21 [Compound 38, N^4-(9-ethyl-9H-carbazol-3-yl)-N^2-(2-methoxyethyl)pyrimidine-2,4-diamine]
IC50 [2]: > 50 µM
activity at 2.8 µM ([9]; Homo sapiens, MDA-MB-231, 24 h, at 2.8 μM): 96.7%

Structure (SMILES): CCn1c2ccccc2c2cc(Nc3ccnc(NCc4ccc(OC)cc4OC)n3)ccc21 [Compound 39, N^2-(2,4-dimethoxybenzyl)-N^4-(9-ethyl-9H-carbazol-3-yl) pyrimidine-2,4-diamine]
IC50 [2]: > 50 µM
activity at 0.92 µM ([9]; Homo sapiens, MDA-MB-231, 24 h, at 0.92 μM): 103%

Structure (SMILES): CCn1c2ccccc2c2cc(Nc3ccnc(Nc4c(OC)cc(OC)cc4OC)n3)ccc21 [Compound 40, N^4-(9-ethyl-9H-carbazol-3-yl)-N^2-(2,4,6-trimethoxyphenyl) pyrimidine-2,4-diamine]
IC50 [2]: 7.7 µM
activity at 1.54 µM ([9]; Homo sapiens, MDA-MB-231, 24 h, at 1.54 μM (0.2×IC50)): 80.2%
inhibition of migration in words [9]: inhibition of migration

Structure (SMILES): CCn1c2ccccc2c2cc(Nc3ccnc(NC(=O)Nc4cc(Cl)c(OC)cc4OC)n3)ccc21 [Compound 41, 1-(5-chloro-2,4-dimethoxyphenyl)-3-(4-((9-ethyl-9H-carbazol-3-yl)amino)pyrimidin-2-yl)urea]
IC50 [2]: 10.9 µM
activity at 1 µM ([9]; Homo sapiens, MDA-MB-231, 24 h): 77.3%
inhibition of migration in words [9]: inhibition of migration
